In assay [1] the test system is Male Swiss Webster mice. The experiment in a line: Mouse tail suspension assay. As to conditions: mouse tail suspension study, acute administration. Format: in vivo. Here is the method:
Male Swiss Webster mice were housed 3-4 per cage in rooms maintained at a constant temperature (21-23° C.) and humidity (50±10%) on a 12-hour light/dark cycle. Animals had ad libitum access to water and food throughout studies. On the day of testing, they were brought into the testing room and allowed to acclimate for one hour.
To begin testing, the tail was attached to a piece of tape which ias then attached to a hook on the ceiling of a sound-attenuated chamber. Immobility was automatically recorded using the Med Associates software. Compounds were administered acutely at a fixed pretreatment interval before session.

Assay [2] relates to SERT. The experiment in a line: Occupancy assay, ex vivo binding in brain tissue, SERT. As to conditions: dose 1 mg/kg, time point 3 h. The text has this: (§1) The general procedure for brain tissue collection and transporter occupancy assessment is briefly described as follows. Mice were sacrificed by asphyxiation in CO2, rats by decapitation and dogs by IV injection of euthanasia solution. For mice and rats, after the brains were removed from the skull, the forebrain tissue (removal of the brainstem and cerebellum) was used for SERT, NET, and DAT occupancy assessment. In dogs, the striatum was dissected for DAT occupancy and the remaining forebrain tissue (without the striatum, brainstem, and cerebellum) was used for SERT and NET occupancy assessment. The brain tissues were frozen in chilled isopentane and stored at −80° C. until homogenization.
(§2) The brain tissues were thawed and then homogenized using a polytron homogenizer (Kinematica). Sample aliquots were frozen immediately and stored at −80° C. Protein content was measured for each sample using a Coomassie protein assay kit (Pierce).
On the day of ex vivo binding for occupancy assessment, frozen sample aliquots were thawed and needle homogenized, and 100 μg of the tissue was incubated for SERT, NET, and DAT binding under assay conditions summarized in Table 2. After incubation, the reactions were terminated by the addition of ice-cold assay buffer and rapid filtration through a Brandel Cell Harvester using FPXLR-196 filters. The filters were washed twice with ice-cold incubation buffer, punched into a clear plate prior to the addition of 200 ul scintillation fluid per well. Radioligand was measured using a Wallac Microbeta liquid scintillation counter.
The specific binding was calculated by subtracting the value of the non-specific binding from that of the total binding in each sample. The percent occupancy was calculated as (1−specific binding in drug treated/specific binding in vehicle treated)×100%. For estimation of in vivo occupancy EC50 (total plasma concentration of compound producing 50% occupancy), plots of occupancy values versus plasma concentrations were fitted to a one-site binding model using nonlinear regression according to the following equation: % Occupancy=Emax*C/(EC50+C) where Emax is the maximal specific binding, C is the drug concentration, and EC50 is the total plasma concentration required for 50% binding site occupancy. Nonlinear regression was performed using GraphPad Prism version 3.00 (GraphPad Software, San Diego, Calif.).

Assay [3] deals with DAT. The experiment in a line: Occupancy assay, ex vivo binding in brain tissue, DAT. As to conditions: dose 1 mg/kg, time point 3 h.
Source text: as §1, §2
(§3) On the day of ex vivo binding for occupancy assessment, frozen sample aliquots were thawed and needle homogenized, and 100 μg of the tissue was incubated for SERT, NET, and DAT binding under assay conditions summarized in Table 2. […] The filters were washed twice with ice-cold incubation buffer, punched into a clear plate prior to the addition of 200 ul scintillation fluid per well. Radioligand was measured using a Wallac Microbeta liquid scintillation counter.
(§4) The specific binding was calculated by subtracting the value of the non-specific binding from that of the total binding in each sample. The percent occupancy was calculated as (1−specific binding in drug treated/specific binding in vehicle treated)×100%. […] Nonlinear regression was performed using GraphPad Prism version 3.00 (GraphPad Software, San Diego, Calif.).

Assay [4] has as its system NET. The experiment in a line: Occupancy assay, ex vivo binding in brain tissue, NET. As to conditions: dose 1 mg/kg, time point 3 h.
Source text: as §1, §2, §3, §4

For assay [5], the target named is hSERT (Homo sapiens (Human), UniProt P31645). The experiment in a line: SERT radioligand binding assay ([125I]RTI-55, HEK-293 membranes). As to conditions: for IC50: (+)-enantiomers, read-out: SERT IC50. Here is the method:
(§5) The medium was removed from the flasks and the cells rinsed with HBSS without Ca and without Mg. The cells were then incubated for 5-10 minutes in 10 mM Tris-Cl, pH 7.5, 5 mM EDTA before the cells were lifted with a combination of pipetting and scraping, as needed. The cell suspension was collected into centrifuge bottles and homogenized for 30 seconds with a Polytron homogenizer. The suspension was centrifuged for 30 minutes at 32,000×g, 4° C. The supernatant was decanted and the pellet resuspended and homogenized in 50 mM Tris-Cl, pH 7.5, 1 mM EDTA for 10 seconds. The suspension was then centrifuged again for 30 minutes at 32,000×g, 4° C. The supernatant was decanted and the pellet resuspended in 50 mM Tris-Cl, pH 7.5, 1 mM EDTA and briefly homogenized. A Bradford assay (Bio-rad) was performed and the membrane preparation diluted to 2 mg/ml with 50 mM Tris-Cl, pH 7.5, 1 mM EDTA. Aliquots were prepared, and then frozen and stored at −80° C.
Compounds were dissolved in 100% DMSO at a concentration 100 times the desired highest assay concentration, serially diluted 1:3 in 100% DMSO, and 0.4 μl/well of each solution was dispensed to a Nunc polypropylene, round bottom, 384-well plate. […] The contents of the assay plate were then transferred to a Millipore MultiscreenHTS GF/B filter plate which was pretreated with 0.5% PEI for at least one hour. The plate was vacuum filtered and washed with 7 washes of 100 μl/well 50 mM Tris-Cl, pH 7.5, 120 mM NaCl, 5 mM KCl chilled to 4° C. The filtration and washing were completed in less than 90 seconds. The plates were air-dried overnight, 12 μl/well of MicroScint scintillation fluid added, and the plates counted in a Trilux.
Each plate was run in triplicate, and the concentration response curve thus generated was fit using the four-parameter dose response equation, Y=Bottom+(Top-Bottom)/(1+10^((LogIC50−X)*HillSlope)) in order to determine the IC50 value for each compound. The radioligand concentration chosen for each assay corresponds to the Kd concentration determined through saturation binding analysis for each assay.

The target of assay [6] is hDAT (Homo sapiens (Human), UniProt Q01959). The experiment in a line: DAT radioligand binding assay ([125I]RTI-55, HEK-293 membranes). As to conditions: for IC50: (+)-enantiomers, read-out: DAT IC50. The procedure:
as §5, with “Recombinant HEK-293 cells expressing either the hSERT, hDAT, or hNET proteins were harvested from T-175 flasks as follows. The medium” for “The medium”
Compounds were dissolved in 100% DMSO at a concentration 100 times the desired highest assay concentration, serially diluted 1:3 in 100% DMSO, and 0.4 μl/well of each solution was dispensed to a Nunc polypropylene, round bottom, 384-well plate. 100% inhibition is defined with 0.4 μl/well of 1 mM GBR-12935 dissolved in DMSO. 20 ul/well of a 2× membrane preparation (12.5 μg/ml in 30 mM sodium phosphate buffer, pH 7.9 at 4° C.) and 20 μl/well of a 2× radioligand solution ([…] [^125I]RTI-55 in 30 mM sodium phosphate buffer, pH 7.9 at 4° C.) were added to the well and the reaction incubated for 1 hour at room temperature. The contents of the assay plate were then transferred to a Millipore MultiscreenHTS GF/B filter plate which was pretreated with 0.5% PEI for at least one hour. The plate was vacuum-filtered and washed with 7 washes of 100 μl/well 50 mM Tris-Cl, pH 7.5, 120 mM NaCl, 5 mM KCl chilled to 4° C. The filtration and washing were completed in less than 90 seconds. The plates were air-dried overnight, 12 μl/well of MicroScint scintillation fluid added, and the plates counted in a Trilux.
(§6) The raw data was normalized to percent inhibition using control wells defining 0% (DMSO only) and 100% (selective inhibitor) inhibition which were run on each plate. Each plate was run in triplicate, and the concentration response curve thus generated was fit using the four-parameter dose response equation, Y=Bottom+(Top-Bottom)/(1+10^((LogIC50−X)*HillSlope)) in order to determine the IC50 value for each compound. The radioligand concentration chosen for each assay corresponds to the Kd concentration determined through saturation binding analysis for each assay.

The target of assay [7] is hNET (Homo sapiens (Human), UniProt P23975). The experiment in a line: NET radioligand binding assay ([3H]nisoxetine, HEK-293 membranes). As to conditions: for IC50: (+)-enantiomers. The procedure: as §5, with “Recombinant HEK-293 cells expressing either the hSERT, hDAT, or hNET proteins were harvested from T-175 flasks as follows. The medium” for “The medium”
Compounds were dissolved in 100% DMSO at a concentration 100 times the desired highest assay concentration, serially diluted 1:3 in 100% DMSO, and 1.0 μl/well of each solution was dispensed to a Nunc polypropylene, round bottom, 384-well plate. 100% inhibition is defined with 1.0 μl/well of 10 mM desipramine dissolved in DMSO. 50 μl/well of a 2× membrane preparation (0.4 mg/ml in 50 mM Tris-Cl, pH 7.5, 120 mM NaCl, 5 mM KCl) and 50 μl/well of a 2× radioligand solution (4 nM [^3H]nisoxetine in 50 mM Tris-Cl, pH 7.5, 120 mM NaCl, 5 mM KCl) were added to the well and the reaction incubated for 1 hour at room temperature. The contents of the assay plate were then transferred to a Millipore MultiscreenHTS GF/B filter plate which was pretreated with 0.5% PEI for at least one hour. The plate was vacuum filtered and washed with 7 washes of 100 μl/well 50 mM Tris-Cl, pH 7.5, 120 mM NaCl, 5 mM KCl chilled to 4° C. The filtration and washing were completed in less than 90 seconds. The plates were air-dried overnight, 12 μl/well of MicroScint scintillation fluid added, and the plates counted in a Trilux.
as §6

Sequence of hNET (P23975 whole entry): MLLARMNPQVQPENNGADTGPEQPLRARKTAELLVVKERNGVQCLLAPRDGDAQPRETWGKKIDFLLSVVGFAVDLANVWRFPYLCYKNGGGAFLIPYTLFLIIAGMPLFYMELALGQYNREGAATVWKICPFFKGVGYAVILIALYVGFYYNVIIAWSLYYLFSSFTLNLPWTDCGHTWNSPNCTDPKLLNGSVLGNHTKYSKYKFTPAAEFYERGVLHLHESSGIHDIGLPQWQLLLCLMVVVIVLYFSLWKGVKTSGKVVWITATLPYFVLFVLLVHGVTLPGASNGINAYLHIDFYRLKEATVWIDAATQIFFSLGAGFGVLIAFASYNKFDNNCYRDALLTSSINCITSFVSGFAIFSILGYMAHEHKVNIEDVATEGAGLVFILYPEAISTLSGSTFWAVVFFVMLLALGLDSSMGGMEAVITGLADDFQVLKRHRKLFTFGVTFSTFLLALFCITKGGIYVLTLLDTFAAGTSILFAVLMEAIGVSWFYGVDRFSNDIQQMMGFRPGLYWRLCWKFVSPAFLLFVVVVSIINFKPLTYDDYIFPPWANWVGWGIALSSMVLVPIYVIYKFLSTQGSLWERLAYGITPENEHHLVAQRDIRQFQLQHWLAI
Sequence of hSERT (P31645 whole entry): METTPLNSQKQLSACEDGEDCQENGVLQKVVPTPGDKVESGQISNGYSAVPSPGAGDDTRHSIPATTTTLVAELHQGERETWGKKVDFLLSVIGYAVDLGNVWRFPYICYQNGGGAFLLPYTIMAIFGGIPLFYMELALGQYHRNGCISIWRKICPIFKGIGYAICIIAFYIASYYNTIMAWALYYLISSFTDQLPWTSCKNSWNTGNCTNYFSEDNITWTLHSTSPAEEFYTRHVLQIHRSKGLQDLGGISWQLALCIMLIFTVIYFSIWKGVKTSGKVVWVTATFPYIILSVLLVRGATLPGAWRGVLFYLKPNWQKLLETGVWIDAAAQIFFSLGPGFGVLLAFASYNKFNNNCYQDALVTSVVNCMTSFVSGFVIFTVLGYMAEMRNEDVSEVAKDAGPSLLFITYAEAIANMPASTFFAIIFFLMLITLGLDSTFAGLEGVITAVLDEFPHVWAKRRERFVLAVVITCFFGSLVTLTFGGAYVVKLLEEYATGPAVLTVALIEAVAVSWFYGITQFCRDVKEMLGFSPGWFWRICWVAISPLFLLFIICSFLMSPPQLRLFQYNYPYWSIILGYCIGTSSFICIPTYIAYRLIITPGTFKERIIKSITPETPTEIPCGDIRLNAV
Sequence of hDAT (Q01959 whole entry): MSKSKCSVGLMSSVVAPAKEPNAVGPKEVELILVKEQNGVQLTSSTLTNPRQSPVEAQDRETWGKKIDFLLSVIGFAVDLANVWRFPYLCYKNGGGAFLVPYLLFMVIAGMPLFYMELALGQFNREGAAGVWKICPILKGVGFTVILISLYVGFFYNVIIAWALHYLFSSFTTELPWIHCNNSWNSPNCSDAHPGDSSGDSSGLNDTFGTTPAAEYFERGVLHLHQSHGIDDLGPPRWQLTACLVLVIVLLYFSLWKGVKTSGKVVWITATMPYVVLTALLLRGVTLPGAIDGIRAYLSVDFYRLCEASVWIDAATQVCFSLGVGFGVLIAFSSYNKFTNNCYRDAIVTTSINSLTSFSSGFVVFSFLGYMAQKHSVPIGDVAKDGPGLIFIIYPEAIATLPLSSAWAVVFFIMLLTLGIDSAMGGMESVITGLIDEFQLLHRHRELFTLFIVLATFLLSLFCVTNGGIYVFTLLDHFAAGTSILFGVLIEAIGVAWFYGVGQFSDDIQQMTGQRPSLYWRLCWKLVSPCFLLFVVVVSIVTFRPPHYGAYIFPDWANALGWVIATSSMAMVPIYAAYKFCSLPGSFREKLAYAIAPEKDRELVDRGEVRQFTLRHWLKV

`Clc1ccc(C2CNCc3cc(-c4ccc5ncnn5c4)ccc32)cc1Cl` (stereo not shown) [Example 36, 7-([1,2,4]triazolo[1,5-a]pyridin-6-yl)-4-(3,4-dichlorophenyl)-1,2,3,4-tetrahydroisoquinoline] came in with a minimum effective dose in assay [1] of 10 mg/kg. The “SERT Occupancy %” value in assay [2] came to 75%. Also, in assay [3], the “DAT Occupancy %” value amounted to 26%. In addition, the “NET Occupancy %” value in assay [4] came out at 11%.

One may read the IC50 as the midpoint of a concentration-inhibition curve. As to `NC(=O)c1ccc(-c2cc3c(cc2F)C(c2ccc(Cl)c(Cl)c2)CNC3)cc1` (stereo not shown) [Example 26, 4-(4-(3,4-dichlorophenyl)-6-fluoro-1,2,3,4-tetrahydroisoquinolin-7-yl)benzamide], the IC50 in assay [5] was 24.5 nM; in assay [6], 5.8 nM; in assay [7], 23.3 nM.

For the compound `Fc1cc2c(cc1-c1ccc3ncnn3c1)CNCC2c1ccc(Cl)c(Cl)c1` (single isomer, unassigned; (+)) [Example 39, (+)-7-([1,2,4]triazolo[1,5-a]pyridin-6-yl)-4-(3,4-dichlorophenyl)-6-fluoro-1,2,3,4-tetrahydroisoquinoline], the IC50 in assay [5] was determined as 14.1 nM; in assay [6], 83.2 nM; in assay [7] it was 70.4 nM.

For orientation: inhibition means the percentage by which the read-out fell short of the control. Take `CC1NCC(c2ccc(Cl)cc2)c2ccc(-c3cccnn3)cc21` (stereo not shown) [Example 7, 4-(4-Chloro-phenyl)-7-(pyridazin-3-yl)-1-methyl-1,2,3,4-tetrahydro-isoquinoline]: the inhibition at 0.1 µM in assay [5] (100 nM, SERT IC50 with footnote *) was determined as 35%; in assay [6] (100 nM, DAT IC50 with footnote *), 16%; in assay [7] (100 nM, NET IC50 with footnote *), 0%.

With `Cc1ccc(C2CCNc3cc(-c4ccc(C)nn4)ccc32)cc1` (stereo not shown) [Example 1, 7-(6-methylpridazin-3-yl)-4-p-tolyl-1,2,3,4-tetrahydroquinoline], the IC50 in assay [5] was 27.9 nM; in assay [6], 64.5 nM; in assay [7] it was 174 nM.

`FC(F)(F)c1ccc(-c2ccc3c(c2)NCCC3c2ccc(Cl)cc2)nn1` (single isomer, unassigned; (+)) [Example 4, (+)-4-(4-chlorophenyl)-7-(6-(trifluoromethyl)pyridazin-3-yl)-1,2,3,4-tetrahydroquinoline]: the IC50 in assay [5] amounted to 21.4 nM; in assay [6], 138 nM; in assay [7], 47.3 nM.

Take `CS(=O)(=O)c1ccc(-c2ccc3c(c2)CNCC3c2ccc(Cl)c(Cl)c2)cc1` (stereo not shown) [Example 16, 4-(3,4-dichlorophenyl)-7-(4-(methylsulfonyl)phenyl)-1,2,3,4-tetrahydroisoquinoline]: the IC50 was 20 nM in assay [5], 77 nM in assay [6] and 13 nM in assay [7].

For the origin of these results see US9034899B2, “Aryl, heteroaryl, and heterocycle substituted tetrahydroisoquinolines and use thereof” (Albany Molecular Research, Inc., priority 2009, dated 2015).
